Measurements from US20260132129A1 (Genesis Therapeutics, Inc., priority 2022, published 2026).

Target: T1, PI3Kα H1047R (T47D cells) (Homo sapiens, UniProt P42336, H1047R)
T1 construct: endogenous in cells; host or cells: T47D cells
Assay: PI3Kα cellular assay: pAKT HTRF in T47D cells after EGF stimulation
Format: cell-based
Conditions: for IC50: T47D cells (PI3Kα H1047R), pAKT S473 HTRF, EGF stimulation; for T47D pAKT S473 HTRF IC50 (H1047R): T47D (H1047R) selectivity over SKBR3 (WT): selectivity of T47D (H1047R) over SKBR3 (WT) pAKT IC50
Summary of the method: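 T47D cells (PIK3CA H1047R) serum-starved 16 h, then treated 1 h at 37 °C with compound (10,000 nM top, 3-fold steps to 0.5 nM). After 10 min stimulation with 20 ng/mL EGF, cells were lysed and pAKT measured by HTRF.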

T1 sequence (P42336 whole entry H1047R): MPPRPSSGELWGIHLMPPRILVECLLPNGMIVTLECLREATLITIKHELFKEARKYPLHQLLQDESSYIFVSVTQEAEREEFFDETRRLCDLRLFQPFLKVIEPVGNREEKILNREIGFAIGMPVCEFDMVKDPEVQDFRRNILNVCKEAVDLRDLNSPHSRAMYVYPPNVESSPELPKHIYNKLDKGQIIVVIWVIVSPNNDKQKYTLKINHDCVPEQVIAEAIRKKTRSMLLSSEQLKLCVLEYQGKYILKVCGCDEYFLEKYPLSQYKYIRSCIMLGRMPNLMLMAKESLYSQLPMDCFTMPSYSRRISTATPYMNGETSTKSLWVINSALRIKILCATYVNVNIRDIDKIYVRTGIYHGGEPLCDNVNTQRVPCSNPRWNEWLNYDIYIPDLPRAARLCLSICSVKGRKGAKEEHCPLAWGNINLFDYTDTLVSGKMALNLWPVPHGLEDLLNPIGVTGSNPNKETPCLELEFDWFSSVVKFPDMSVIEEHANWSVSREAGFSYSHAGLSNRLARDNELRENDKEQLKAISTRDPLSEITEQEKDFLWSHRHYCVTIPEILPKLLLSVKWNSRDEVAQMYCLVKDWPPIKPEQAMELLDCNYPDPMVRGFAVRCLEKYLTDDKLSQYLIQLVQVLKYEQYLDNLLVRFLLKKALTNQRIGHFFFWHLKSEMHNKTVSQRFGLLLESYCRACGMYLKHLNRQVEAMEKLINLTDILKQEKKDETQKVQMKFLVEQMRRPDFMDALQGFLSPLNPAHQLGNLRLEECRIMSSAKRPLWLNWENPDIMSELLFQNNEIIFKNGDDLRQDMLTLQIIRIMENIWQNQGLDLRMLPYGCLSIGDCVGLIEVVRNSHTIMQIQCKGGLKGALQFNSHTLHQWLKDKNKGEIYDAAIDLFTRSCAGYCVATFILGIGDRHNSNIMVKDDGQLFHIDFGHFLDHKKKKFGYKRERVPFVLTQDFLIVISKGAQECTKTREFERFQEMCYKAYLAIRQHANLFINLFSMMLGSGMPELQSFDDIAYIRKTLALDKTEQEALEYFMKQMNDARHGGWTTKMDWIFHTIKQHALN
T1 sequence (P27986 whole entry partner): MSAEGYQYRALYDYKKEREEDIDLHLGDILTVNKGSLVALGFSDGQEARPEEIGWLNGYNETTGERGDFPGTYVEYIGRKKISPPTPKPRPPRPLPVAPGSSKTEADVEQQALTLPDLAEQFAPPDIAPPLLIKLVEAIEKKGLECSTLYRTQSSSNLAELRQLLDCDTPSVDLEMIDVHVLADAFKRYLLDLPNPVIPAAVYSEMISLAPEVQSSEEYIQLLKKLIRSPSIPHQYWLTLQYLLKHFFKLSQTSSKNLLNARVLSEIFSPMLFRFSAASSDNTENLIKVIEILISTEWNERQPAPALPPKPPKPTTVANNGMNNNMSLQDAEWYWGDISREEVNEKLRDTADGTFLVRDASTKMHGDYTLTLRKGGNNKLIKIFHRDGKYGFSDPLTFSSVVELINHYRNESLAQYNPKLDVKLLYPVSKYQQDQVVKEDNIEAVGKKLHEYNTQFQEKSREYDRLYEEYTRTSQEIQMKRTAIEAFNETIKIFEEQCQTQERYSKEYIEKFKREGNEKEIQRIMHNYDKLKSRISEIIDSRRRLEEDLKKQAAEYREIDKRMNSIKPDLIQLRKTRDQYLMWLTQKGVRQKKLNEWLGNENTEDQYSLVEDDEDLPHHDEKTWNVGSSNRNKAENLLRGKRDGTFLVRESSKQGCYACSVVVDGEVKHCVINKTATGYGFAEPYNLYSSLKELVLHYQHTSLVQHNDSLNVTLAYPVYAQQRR

Row | SMILES | IC50 | T47D pAKT S473 HTRF IC50 (H1047R): T47D (H1047R) selectivity over SKBR3 (WT)
1 | Cc1cc([C@H](C)Nc2ccccc2C(=O)O)c2nc(-c3c(C)ccc4[nH]ncc34)cc(=O)n2c1 [Compound 814] | > 2000 nM | C (C denotes ≤5-fold)
2 | Cc1cc([C@H](C)Nc2ccccc2C(=O)O)c2nc(-c3c(C)ccc4c3cnn4C)cc(=O)n2c1 [Compound 815] | > 2000 nM | C (C denotes ≤5-fold)
3 | Cc1cc(C(C)Nc2ccccc2C(=O)O)c2nc(-c3c(C)ccc4c3cnn4C)cc(=O)n2c1 (stereo not drawn) [Compound 817] | > 2000 nM | C (C denotes ≤5-fold)
4 | Cc1cc([C@@H](C)Nc2ccccc2C(=O)O)c2nc(-c3ccc4c(C)nn(C)c4c3)cc(=O)n2c1 [Compound 819] | < 100 nM | A (A denotes >20-fold)
5 | Cc1cc([C@H](C)Nc2ccccc2C(=O)O)c2nc(-c3ccc4c(c3)CC(F)(F)C4)cc(=O)n2c1 [Compound 823] | > 2000 nM | C (C denotes ≤5-fold)
6 | Cc1cc([C@@H](C)Nc2ccccc2C(=O)O)c2nc(-n3cnc4ccc(O)cc43)cc(=O)n2c1 [Compound 826] | 500 to 2000 nM | B (B denotes 20-fold≥value>5-fold)
7 | CC(=O)N=S(C)(=O)c1ccccc1N[C@H](C)c1cc(C)cn2c(=O)cc(N3CCOCC3)nc12 (stereo partly drawn) [Compound 827] | > 2000 nM | C (C denotes ≤5-fold)
8 | CC(=O)N=S(C)(=O)c1ccccc1N[C@@H](C)c1cc(C)cn2c(=O)cc(N3CCOCC3)nc12 (stereo partly drawn) [Compound 828] | 500 to 2000 nM | B (B denotes 20-fold≥value>5-fold)
9 | CCC(=O)N=S(C)(=O)c1ccccc1N[C@@H](C)c1cc(C)cn2c(=O)cc(N3CCOCC3)nc12 (stereo partly drawn) [Compound 829] | > 2000 nM | C (C denotes ≤5-fold)
10 | Cc1cc(C(C)NC2CCN(S(=O)(=O)N(C)C)C2)c2nc(N3Cc4ccccc4C3)cc(=O)n2c1 (stereo not drawn) [Compound 834] | > 2000 nM | C (C denotes ≤5-fold)
11 | Cc1cc(C(C)N(C)c2ccccc2S(N)(=O)=O)c2nc(N3Cc4ccccc4C3)cc(=O)n2c1 (stereo not drawn) [Compound 836] | > 2000 nM | C (C denotes ≤5-fold)
12 | C=CC(=O)Nc1ccc(C(=O)O)c(NC(C)c2cc(C)cn3c(=O)cc(N4Cc5ccccc5C4)nc23)c1 (stereo not drawn) [Compound 840] | > 2000 nM | C (C denotes ≤5-fold)
13 | Cc1cc([C@@H](C)Nc2ccccc2C(=O)O)c2nc(-c3ccc4[nH]nc(C)c4c3)cc(=O)n2c1 [Compound 841] |  | C (C denotes ≤5-fold)
14 | Cc1cc(C(C)Nc2ccccc2C(=O)O)c2nc(N3C[C@H]4C[C@@H](C5CCN(S(C)(=O)=O)CC5)C[C@H]4C3)cc(=O)n2c1 (stereo partly drawn) [Compound 843] |  | B (B denotes 20-fold≥value>5-fold)
15 | Cc1cc([C@@H](C)Nc2ccccc2C(=O)O)c2nc(N3CC4CC(F)(F)CC4C3)c(C)c(=O)n2c1 (stereo partly drawn) [Compound 849] | 100 to 500 nM | A (A denotes >20-fold)
16 | Cc1cc([C@@H](C)Nc2ccccc2C(=O)O)c2nc(-c3ccc4c(c3)COC4)cc(=O)n2c1 [Compound 851] | < 100 nM | A (A denotes >20-fold)
17 | Cc1cc([C@H](C)Nc2ccccc2C(=O)O)c2nc(-c3ccc4c(c3)CC(F)(F)C4)cc(=O)n2c1 [Compound 854] | > 2000 nM | 

Results, then the compound that gave them:

Row | IC50 | T47D pAKT S473 HTRF IC50 (H1047R): T47D (H1047R) selectivity over SKBR3 (WT) | SMILES
18 | > 2000 nM | C (C denotes ≤5-fold) | Cc1cc([C@H](C)Nc2ccccc2C(=O)O)c2nc(-c3ccc4snc(N)c4c3)cc(=O)n2c1 [Compound 810]
19 | 500 to 2000 nM | B (B denotes 20-fold≥value>5-fold) | Cc1cc([C@H](C)Nc2ccccc2C(=O)O)c2nc(-c3cc4c(cc3C)CC(N)=N4)cc(=O)n2c1 [Compound 811]
20 | > 2000 nM | C (C denotes ≤5-fold) | Cc1cc([C@H](C)Nc2ccccc2C(=O)O)c2nc(-c3cnc4cc(O)ccn34)cc(=O)n2c1 [Compound 812]
21 | > 2000 nM | C (C denotes ≤5-fold) | Cc1cc(C(C)Nc2ccccc2C(=O)O)c2nc(-c3c(C)ccc4[nH]ncc34)c(C)c(=O)n2c1 (stereo not drawn) [Compound 813]
22 | > 2000 nM | C (C denotes ≤5-fold) | Cc1cc([C@@H](C)Nc2ccccc2C(=O)O)c2nc(-c3c(C)ccc4c3cnn4C)cc(=O)n2c1 [Compound 816]
23 | < 100 nM | A (A denotes >20-fold) | Cc1cc(C(C)Nc2ccccc2C(=O)O)c2nc(-c3ccc4c(C)nn(C)c4c3)cc(=O)n2c1 (stereo not drawn) [Compound 818]
24 |  | C (C denotes ≤5-fold) | Cc1cc([C@H](C)Nc2ccccc2C(=O)O)c2nc(-c3ccc4c(C)nn(C)c4c3)cc(=O)n2c1 [Compound 820]
25 | 100 to 500 nM | A (A denotes >20-fold) | Cc1cc(C(C)Nc2ccccc2C(=O)O)c2nc(-c3ccc4c(c3)CC(F)(F)C4)cc(=O)n2c1 (stereo not drawn) [Compound 821]
26 | < 100 nM | A (A denotes >20-fold) | Cc1cc([C@@H](C)Nc2ccccc2C(=O)O)c2nc(-c3ccc4c(c3)CC(F)(F)C4)cc(=O)n2c1 [Compound 822]
27 | 500 to 2000 nM | B (B denotes 20-fold≥value>5-fold) | Cc1cc(C(C)Nc2ccccc2-c2ccnnc2)c2nc(N3Cc4ccccc4C3)c(C3CC3)c(=O)n2c1 (stereo not drawn) [Compound 832]
28 | 100 to 500 nM | A (A denotes >20-fold) | Cc1cc(C(C)Nc2ccccc2C(=O)O)c2nc(-c3ccc4c(c3)CC(F)(F)C4)c(C)c(=O)n2c1 (stereo not drawn) [Compound 833]
29 | 100 to 500 nM | A (A denotes >20-fold) | CNS(=O)(=O)c1ccccc1NC(C)c1cc(C)cn2c(=O)cc(N3Cc4ccccc4C3)nc12 (stereo not drawn) [Compound 835]
30 | 500 to 2000 nM | B (B denotes 20-fold≥value>5-fold) | Cc1cc(C(C)Nc2ccccc2C(=O)O)c2nc(N3C[C@H]4C[C@@H](C5CCN(S(=O)(=O)N(C)C)CC5)C[C@H]4C3)cc(=O)n2c1 (stereo partly drawn) [Compound 844]
31 | > 2000 nM | C (C denotes ≤5-fold) | Cc1cc([C@@H](C)Nc2ccccc2-c2ccnnc2)c2nc(N3Cc4ccccc4C3)c(C3CC3)c(=O)n2c1 [Compound 847]
32 | > 2000 nM | C (C denotes ≤5-fold) | Cc1cc([C@H](C)Nc2ccccc2C(=O)O)c2nc(N3CC4CC(F)(F)CC4C3)c(C)c(=O)n2c1 (stereo partly drawn) [Compound 850]
33 |  | C (C denotes ≤5-fold) | Cc1cc([C@H](C)Nc2ccccc2C(=O)O)c2nc(-c3ccc4c(c3)COC4)cc(=O)n2c1 [Compound 852]
34 | < 100 nM | A (A denotes >20-fold) | Cc1cc([C@@H](C)Nc2ccccc2C(=O)O)c2nc(-c3ccc4c(c3)CC(F)(F)C4)c(C)c(=O)n2c1 [Compound 853]
